According to patent publication US9951068B2 (Proximagen Limited, priority 2013, dated 2018):

Biological target: purified recombinantly expressed human SSAO (Homo sapiens (Human), UniProt Q16853)
Experiment: SSAO enzyme inhibition assay (HRP-coupled hydrogen peroxide detection or 14C-benzaldehyde detection, benzylamine substrate)
Type: biochemical
Settings: SSAO inhibitory activity, human recombinant SSAO, RT
Description: All primary assays were performed at RT. with purified recombinantly expressed human SSAO. Enzyme was prepared essentially as described in Öhman et al. (Protein Expression and Purification 46 (2006) 321-331). In addition, secondary- and selectivity assays were performed using SSAO prepared from various tissues or purified rat recombinant SSAO. The enzyme activity was assayed with benzylamine as substrate by measuring either benzaldehyde production, using ^14C-labeled substrate, or by utilizing the production of hydrogen peroxide in a horseradish peroxidase (HRP) coupled reaction. Briefly, test compounds were dissolved in dimethyl sulfoxide (DMSO) to a concentration of 10 mM. Dose-response measurements were assayed by either creating 1:10 serial dilutions in DMSO to produce a 7 point curve or by making 1:3 serial dilutions in DMSO to produce 11 point curves.
In a horseradish peroxidase (HRP) coupled reaction, hydrogen peroxide oxidation of 10-acetyl-3,7-dihydroxyphenoxazine produced resorufin, which is a highly fluorescent compound (Zhout and Panchuk-Voloshina. Analytical Biochemistry 253 (1997) 169-174; Amplex® Red Hydrogen Peroxide/peroxidase Assay kit, Invitrogen A22188). Enzyme and compounds in 50 mM sodium phosphate, pH 7.4 were set to pre-incubate in flat-bottomed microtiter plates for approximately 15 min before initiating the reaction by addition of a mixture of HRP, benzylamine and Amplex reagent. Benzylamine concentration was fixed at a concentration corresponding to the Michaelis constant, determined using standard procedures. Fluorescence intensity was then measured at several time points during 1-2 h, exciting at 544 nm and reading the emission at 590 nm. For the human SSAO assay final concentrations of the reagents in the assay wells were: SSAO enzyme 1 ug/ml, benzylamine 100 uM, Amplex reagent 20 uM, HRP 0.1 U/mL and varying concentrations of test compound. The inhibition was measured as % decrease of the signal compared to a control without inhibitor (only diluted DMSO). The background signal from a sample containing no SSAO enzyme was subtracted from all data points. Data was fitted to a four parameter logistic model and IC50 values were calculated using the GraphPad Prism 4 or XLfit 4 programs.
SSAO activity was assayed using 14C-labeled benzylamine and analysed by measuring radioactive benzaldehyde. In a white 96-well optiplate (Packard), 20 uL of diluted test compound was pre-incubated at room temperature with 20 uL SSAO enzyme for approximately 15 min with continuous agitation. All dilutions were made with PBS. The reaction was initiated by adding 20 uL of the benzylamine substrate solution containing [7-14C] Benzylamine hydrochloride (CFA589, GE Healthcare). The plate was incubated for 1 h as above after which the reaction was stopped by acidification (10 uL 1M aq HCl). Then 90 uL Micro Scint-E solution (Perkin-Elmer) was added to each well and the plate was continuously mixed for 15 min. Phase separation occurred instantly and activity was read in a Topcount scintillation counter (Perkin-Elmer). In the final reaction well, the human recombinant SSAO concentration was 10 ug/ml. In order to optimize sensitivity, the substrate concentration was decreased as compared to the HRP coupled assay in order to get a higher fraction of radioactive product. In the human SSAO assay, benzylamine concentration was 40 uM (0.2 uCi/mL). Data was analysed as above.

Chain of purified recombinantly expressed human SSAO (Q16853 29-763): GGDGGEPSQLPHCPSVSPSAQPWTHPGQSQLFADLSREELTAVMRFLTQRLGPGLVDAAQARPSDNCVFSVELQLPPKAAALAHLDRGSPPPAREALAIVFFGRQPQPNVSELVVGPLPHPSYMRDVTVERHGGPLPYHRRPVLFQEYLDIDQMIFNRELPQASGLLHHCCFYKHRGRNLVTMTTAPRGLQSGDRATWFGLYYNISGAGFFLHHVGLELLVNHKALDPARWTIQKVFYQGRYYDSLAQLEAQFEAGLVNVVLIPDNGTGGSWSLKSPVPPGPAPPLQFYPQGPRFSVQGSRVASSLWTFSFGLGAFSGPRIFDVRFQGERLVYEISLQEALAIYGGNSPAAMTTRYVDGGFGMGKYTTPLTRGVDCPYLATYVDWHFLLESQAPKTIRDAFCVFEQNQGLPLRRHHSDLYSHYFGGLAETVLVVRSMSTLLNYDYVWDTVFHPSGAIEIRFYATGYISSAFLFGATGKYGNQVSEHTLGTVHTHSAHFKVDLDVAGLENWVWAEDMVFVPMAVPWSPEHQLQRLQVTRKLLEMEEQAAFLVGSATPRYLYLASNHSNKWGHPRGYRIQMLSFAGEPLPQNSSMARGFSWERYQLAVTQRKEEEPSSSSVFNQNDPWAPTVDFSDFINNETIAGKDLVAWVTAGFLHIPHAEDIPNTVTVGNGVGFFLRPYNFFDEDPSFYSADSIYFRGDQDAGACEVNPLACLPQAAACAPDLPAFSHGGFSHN

Row | IC50 [nM] | SMILES
1 | < 50 | Clc1ccc(-n2c(-c3ccc(N4CCOCC4)nn3)nc3ccncc32)cc1 [Example 4, 4-{6-[3-(4-Chlorophenyl)-3H-imidazo[4,5-c]pyridin-2-yl]pyridazin-3-yl}morpholine]
2 | < 50 | NC1CCN(c2ccc(-c3nc4ccncc4n3-c3ccc(Cl)cc3)cn2)CC1 [Example 8, 1-{5-[3-(4-Chlorophenyl)-3H-imidazo[4,5-c]pyridin-2-yl]pyridin-2-yl}piperidin-4-amine]
3 | < 50 | Fc1ccc(-n2c(-c3cnc(NCC4CC4)nc3)nc3ccncc32)cc1 [Example 9, N-(Cyclopropylmethyl)-5-[3-(4-fluorophenyl)-3H-imidazo[4,5-c]pyridin-2-yl]pyrimidin-2-amine]
4 | < 50 | Cc1cc(N2CCOCC2)ncc1-c1nc2ccncc2n1-c1ccc(Cl)cc1F [Example 22, 4-{5-[3-(4-Chloro-2-fluorophenyl)-3H-imidazo[4,5-c]pyridin-2-yl]-4-methylpyridin-2-yl}morpholine]
5 | < 50 | Fc1ccc(-n2c(-c3cnc(N4CCCOCC4)nc3)nc3ccncc32)cc1 [Example 25, 4-{5-[3-(4-Fluorophenyl)-3H-imidazo[4,5-c]pyridin-2-yl]pyrimidin-2-yl}-1,4-oxazepane]
6 | < 50 | Cc1nc(N2CCOCC2)ncc1-c1nc2ccncc2n1-c1ccc(Cl)cc1F [Example 27, 4-{5-[3-(4-Chloro-2-fluorophenyl)-3H-imidazo[4,5-c]pyridin-2-yl]-4-methylpyrimidin-2-yl}morpholine]
7 | < 50 | Cn1ccc(-c2nc3ccncc3n2-c2ccc(Cl)cc2)cc1=O [Example 32, 4-[3-(4-Chlorophenyl)-3H-imidazo[4,5-c]pyridin-2-yl]-1-methyl-1,2-dihydropyridin-2-one]
8 | < 50 | COCCCNc1ncc(-c2nc3ccncc3n2-c2ccc(C)cc2)cn1 [Example 37, N-(3-Methoxypropyl)-5-[3-(4-methylphenyl)-3H-imidazo[4,5-c]pyridin-2-yl]pyrimidin-2-amine]
9 | < 50 | Cc1ccc(-n2c(-c3cnc(NCCOC(C)C)nc3)nc3ccncc32)cc1 [Example 39, 5-[3-(4-Methylphenyl)-3H-imidazo[4,5-c]pyridin-2-yl]-N-[2-(propan-2-yloxy)ethyl]pyrimidin-2-amine]
10 | < 50 | Fc1ccc(-n2c(-c3ccc(N4CCOCC4)nc3)nc3ccncc32)c(F)c1 [Example 41, 4-{5-[3-(2,4-Difluorophenyl)-3H-imidazo[4,5-c]pyridin-2-yl]pyridin-2-yl}morpholine]
11 | < 50 | CCOCCNc1ncc(-c2nc3ccncc3n2-c2ccc(C)cc2)cn1 [Example 43, N-(2-Ethoxyethyl)-5-[3-(4-methylphenyl)-3H-imidazo[4,5-c]pyridin-2-yl]pyrimidin-2-amine]
12 | < 50 | Clc1ccc(-n2c(-c3ccc(N4CCOCC4)nc3)nc3ccncc32)cc1 [Example 47, 4-{5-[3-(4-Chlorophenyl)-3H-imidazo[4,5-c]pyridin-2-yl]pyridin-2-yl}morpholine]
13 | < 50 | Clc1ccc(-n2c(-c3ccc(Cn4ccnc4)cc3)nc3ccncc32)cc1 [Example 48, 1-({4-[3-(4-Chlorophenyl)-3H-imidazo[4,5-c]pyridin-2-yl]phenyl}methyl)-1H-imidazole]
14 | < 50 | Clc1ccc(-n2c(-c3ccc(CN4CCOCC4)cc3)nc3ccncc32)cc1 [Example 49, 4-({4-[3-(4-Chlorophenyl)-3H-imidazo[4,5-c]pyridin-2-yl]phenyl}methyl)morpholine]
15 | < 50 | Clc1ccc(-n2c(-c3cnc(N4CCOCC4)nc3)nc3ccncc32)cc1 [Example 51, 4-{5-[3-(4-Chlorophenyl)-3H-imidazo[4,5-c]pyridin-2-yl]pyrimidin-2-yl}morpholine]
16 | < 50 | Cc1cc(F)ccc1-n1c(-c2cnc(N3CCOCC3)nc2)nc2ccncc21 [Example 55, 4-{5-[3-(4-Fluoro-2-methylphenyl)-3H-imidazo[4,5-c]pyridin-2-yl]pyrimidin-2-yl}morpholine]
